Data published in the METLIN SMRT retention time set (Domingo-Almenara et al. 2019).

Test: gradient 5% acetonitrile 3 min, to 50% in 2 min, to 85% in 15 min, held 3 min, 100 µL/min
Conditions: column: Zorbax Extend-C18 2.1 x 50 mm; eluents: water / acetonitrile, 0.1% formic acid
Method in brief: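 Standards, all pure, were combined into mixtures of ~100 molecules and run at 100 μL/min on a Zorbax Extend-C18 column (2.1 × 50 mm, 1.8 μm) with water and acetonitrile, each containing 0.1% formic acid. A coupled quadrupole time-of-flight mass spectrometer operated in positive and negative ionization mode. Retention time values come from computationally picked adduct peaks, each inspected manually.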
`CCc1ccc(NC(=O)c2cn(-c3cc(-c4nc(CC)no4)ccn3)cn2)cc1` showed an RP-LC retention time of 939 s. For `CN(C)CCNC(=O)C1CCN(C(=O)c2cc3ccsc3n2Cc2ccc(Cl)cc2)CC1`, the RP-LC retention time was 685 s. `CSc1ccc(CNC(=O)c2cc3n(n2)CCCN(Cc2ccccc2)C3=O)cc1` gave an RP-LC retention time of 895 s. With `CCCNC(=O)c1cc(-c2ccccc2)cn1C` the RP-LC retention time was 910 s. With `CN(C)CCn1c2c(c(SCC(=O)Nc3ccc(Br)cc3)nc1=O)CCC2` the RP-LC retention time was 655 s. In the case of `COC(=O)Cc1[nH]c(=O)[nH]c1C(=O)OC`, the RP-LC retention time is reported as 1100 s. Compound `COc1ccc(N2CC(c3nc(-c4cccc(C(F)(F)F)c4)no3)CC2=O)cc1OC` (stereo not given) has an RP-LC retention time of 966 s. For `COc1cccc(-c2noc(Cc3nnc(-c4ccc(F)cc4)o3)n2)c1OC`, the RP-LC retention time was 943 s. In the case of `O=C(CC1CCN(C(=O)c2ccc3oc(-c4ccccc4)nc3c2)CC1)N1CCOCC1`, the RP-LC retention time is reported as 682 s. `Cc1ccc(CNC(=O)C2(C)CCCN(C(=O)Nc3cc(Cl)ccc3C)C2)cc1` (stereo not given) gave an RP-LC retention time of 1080 s. `CCNC(=O)C1CCN(c2nc3ccc(-c4ccccc4F)nc3s2)CC1` gave an RP-LC retention time of 848 s. For `COc1ccc(C(=O)N2CC(F)(F)C[C@H]2COc2ccc3c(c2)CCC3)cn1`, the RP-LC retention time was 1150 s. Work on `COc1ccc(-c2nnc(COc3cccc(NC(=O)c4ccc(C)s4)c3)o2)cc1` yielded an RP-LC retention time of 988 s. `CCN1CCN(CCCNC(=O)c2nnc(-c3ccc(S(=O)(=O)N4CCCC4)cc3)o2)CC1` gave an RP-LC retention time of 581 s. `CC(C)n1c(N2CCN(C(=O)c3ccc(F)c(F)c3)CC2)cc(=O)n(C(C)C)c1=O` showed an RP-LC retention time of 867 s. For `O=C(c1ccco1)N1CCN(c2ccc(-c3noc(C4CCC4)n3)cc2)CC1`, the RP-LC retention time was 990 s. For `C=CCN(Cc1nc(-c2ccc(C)cc2)no1)C(=O)Nc1cccc(C)c1`, the RP-LC retention time was 1110 s. In the case of `CCOc1ccc(NC(=O)CSc2nc(N3CCCCC3)nc3ccccc23)cc1`, the RP-LC retention time is reported as 745 s. `COc1ccc(-c2ccc(=O)n(Cc3nc(-c4ccc(OC(C)C)cc4)no3)n2)cc1` showed an RP-LC retention time of 1120 s. `Cc1ccc(-c2ccc(=O)n(Cc3noc(C(=O)N4CCC(C)CC4)n3)n2)cc1` showed an RP-LC retention time of 977 s. Work on `CCOc1ccc(NC(=O)c2cc(C)n3nccc3n2)cc1` yielded an RP-LC retention time of 917 s. `COc1ccc(OC)c(NC(=O)c2c(C)oc3nc(C)nc(N4CCOCC4)c23)c1` gave an RP-LC retention time of 818 s. `CC(C)C[C@H](NC(=O)C1OC1C(=O)O)C(=O)NCCCCN=C(N)N` (stereo not given in full) showed an RP-LC retention time of 591 s. For `CC(=O)NCC(O)c1ccc([N+](=O)[O-])cc1` (stereo not given), the RP-LC retention time was 661 s. `CCn1c(CCNC(=O)c2cc(C)cc(C)c2)nc2cccnc21` showed an RP-LC retention time of 666 s. Work on `CCNC(=O)c1[nH]c2ccc(C)cc2c1N1CCCC1=O` yielded an RP-LC retention time of 690 s. In the case of `CS(=O)(=O)c1ccc(Sc2nc3ccccc3s2)c([N+](=O)[O-])c1`, the RP-LC retention time is reported as 900 s. With `COc1ccc(OC)c(CNC(=O)Cc2cccn2-c2ccc(C)cc2)c1` the RP-LC retention time was 750 s. Compound `COCCCNCc1ccc(-c2ccc(C(C)O)cc2)o1` (stereo not given) has an RP-LC retention time of 600 s. `O=C(CN1CCc2ccccc2C1C(=O)N1CCCCC1)NCc1ccc(F)cc1Cl` (stereo not given) showed an RP-LC retention time of 918 s. Work on `O=C1CC(c2noc(-c3cc(F)ccc3Cl)n2)CN1c1ccc(F)cc1` (stereo not given) yielded an RP-LC retention time of 1020 s. Compound `CC(C)c1noc(C2(NC(=O)c3ccoc3)CCCCC2)n1` has an RP-LC retention time of 867 s. Work on `COc1ccccc1CNC(=O)C1CCCN1S(=O)(=O)c1cc2c(cc1C)NC(=O)CO2` (stereo not given) yielded an RP-LC retention time of 764 s. Compound `CCC(CN(C)Cc1ccccc1)NS(=O)(=O)c1ccc2[nH]c(=O)ccc2c1` (stereo not given) has an RP-LC retention time of 600 s. In the case of `Cc1nc(-c2cc(S(=O)(=O)N3CCN(c4cccc(Cl)c4)CC3)c(C)s2)cs1`, the RP-LC retention time is reported as 1270 s. `N#Cc1nnn2c1nc(N)c1c(Cl)cccc12` gave an RP-LC retention time of 817 s. `Cc1ccc(S(=O)(=O)N2CCCC2)cc1-c1nnc(-c2ccc(Cl)cc2)o1` gave an RP-LC retention time of 1130 s. With `COc1cc(OC)cc(C(=O)N2C[C@@H]3C[C@H](NC(=O)c4cccs4)[C@H]2C3)c1` the RP-LC retention time was 660 s. Work on `CC(=O)Nc1ccc(S(=O)(=O)NCC2(c3cccs3)CCOCC2)c(C)c1` yielded an RP-LC retention time of 696 s. Compound `COc1cccc(CNC(=O)C2(C)CCN(C(=O)NCC3CCCO3)CC2)c1` (stereo not given) has an RP-LC retention time of 668 s. Compound `COc1ccc(Cl)cc1C(=O)N1CCN(c2ccc(-c3nc(C)cs3)cn2)CC1` has an RP-LC retention time of 909 s. Work on `Cc1ccc(CN2CCN(CC(=O)Nc3cc(C)cc(C)c3)C(=O)C2=O)cc1` yielded an RP-LC retention time of 838 s. For `Cc1ccc(-c2nc3ncccn3c2Nc2cccc(Cl)c2C)cc1`, the RP-LC retention time was 915 s. With `O=C(NCCC1CCN(C(=O)Nc2cc(F)cc(F)c2)CC1)C1CCC1` the RP-LC retention time was 810 s. `COCCCn1c(=O)c2ccccc2n(Cc2nc(-c3ccc(OC)c(OC)c3)no2)c1=O` showed an RP-LC retention time of 876 s. Compound `CC1CCCN(C(=O)c2ccc(-n3cccn3)nc2)C1` (stereo not given) has an RP-LC retention time of 825 s. For `Cc1cc2ncn(Cc3ccccc3F)c2cc1C`, the RP-LC retention time was 582 s. `CCc1ccc(OCC(=O)Nc2cc3c(cc2N2CCCC2)n(C)c(=O)c(=O)n3C)cc1` gave an RP-LC retention time of 836 s. Work on `COC[C@@H]1CN(S(=O)(=O)c2cccc(C#N)c2)C[C@H]1c1ccncc1` yielded an RP-LC retention time of 630 s. In the case of `CC(C)CC(NC(=O)OCc1ccccc1)C(=O)NC(Cc1c[nH]c2ccccc12)C(=O)O` (stereo not given), the RP-LC retention time is reported as 926 s. With `Cc1nnc(-c2coc(S(=O)(=O)N3CCN(CC(C)C)CC3)c2)o1` the RP-LC retention time was 587 s. For `Cn1c(C2CCN(C(=O)Nc3ccc(Br)cc3F)CC2)cc(=O)n2nccc12`, the RP-LC retention time was 694 s. Compound `Cc1cc(S(=O)(=O)[C@H]2CS(=O)(=O)C[C@@H]2N2CCN(c3cccc(Cl)c3)CC2)ccc1F` has an RP-LC retention time of 1090 s. In the case of `COC(=O)c1ccc2c(=O)n(-c3ccc(C)c(F)c3)c(N3CCCC3)nc2c1`, the RP-LC retention time is reported as 1020 s. Compound `CCn1cnc2cc(CNC(=O)Cc3ccsc3)ccc21` has an RP-LC retention time of 578 s. Work on `Cc1ccc(CSc2nnc3c(S(=O)(=O)N4CCCCC4)cccn23)cc1` yielded an RP-LC retention time of 928 s. `CCc1ccc(C(=O)N2CCC(COc3ccc(C(=O)NC(C)C)cc3)CC2)cc1` showed an RP-LC retention time of 941 s. Work on `O=C(Cn1ncc2c(N3CCN(c4ccccn4)CC3)ncnc21)Nc1ccccc1Cl` yielded an RP-LC retention time of 564 s. Compound `CCN(CC)S(=O)(=O)c1cc(-c2nc(C(C)C)cs2)sc1C` has an RP-LC retention time of 1270 s. `Cc1ccc(N2CCN(C(=O)C3=CCN(Cc4cccc(C)c4)CC3)CC2)cc1` gave an RP-LC retention time of 697 s. With `CCS(=O)(=O)N1CC(=O)N(c2ccccc2C)C(C)(C(=O)NCc2ccc(F)cc2)C1` (stereo not given) the RP-LC retention time was 809 s. `CC(C)CCN1CCC(N(Cc2cccnc2)C2CCOCC2)CC1` gave an RP-LC retention time of 551 s. Work on `CCN1CCC[C@H]1CNC(=O)c1c(O)c(Cl)cc(Cl)c1OC` yielded an RP-LC retention time of 777 s. Compound `Cc1ccc2nc(-c3ccc(N(C)C)cc3)c(Nc3ccccc3C)n2c1` has an RP-LC retention time of 812 s. Compound `COC(=O)c1cnc(N2CCN(c3ccccc3F)CC2)c2ccccc12` has an RP-LC retention time of 1240 s. For `COc1ccccc1N1CCN(CCNC(=O)C(=O)NC2CCCCC2)CC1`, the RP-LC retention time was 599 s. `Cc1nn(C)c(C)c1S(=O)(=O)N1CCC(Cc2nncn2-c2ccccc2)CC1` gave an RP-LC retention time of 671 s. With `O=C(NCCN1CCCC1)C1CCN(c2cnn(CC3CC3)c(=O)c2)C1` (stereo not given) the RP-LC retention time was 577 s. `O=C(Nc1ccc(-c2cn3cccnc3n2)cc1)c1cccc(Br)c1` showed an RP-LC retention time of 702 s. `Cc1ncc2c(n1)C[C@@H]1CC[C@H]2N1C(=O)c1ccc2c(c1)OCO2` gave an RP-LC retention time of 639 s. `Cc1cc(OC(C)C(=O)N[C@H](C(=O)O)C(C)C)c2c3c(c(=O)oc2c1)CCCC3` (stereo not given in full) showed an RP-LC retention time of 865 s. Work on `Cc1ccn2cc(-c3ccc(NC(=O)C4CCCCC4)cc3)nc2n1` yielded an RP-LC retention time of 657 s. For `CCC(=O)N(C1CCOCC1)C1CCN(S(=O)(=O)c2ccc(Cl)c(C)c2)CC1`, the RP-LC retention time was 954 s. For `Cc1ccc(NC(=O)Cn2cnc3nc(N4CCCC(C(=O)NC(C)C)C4)sc3c2=O)cc1` (stereo not given), the RP-LC retention time was 711 s. `Cc1ccc(CNc2nc3ccncc3n(C(C)C)c2=O)cc1` gave an RP-LC retention time of 701 s. With `O=c1ccn2c(n1)SC(c1ccccc1)C2` (stereo not given) the RP-LC retention time was 655 s. Work on `COc1ccc(C(=O)N2C[C@H](c3nc(-c4ccncc4)no3)[C@@H](C)C2)c(OC)c1` yielded an RP-LC retention time of 743 s. Work on `CCc1c(C2CCN(C(=O)Nc3ccc(OC)cc3)CC2)noc1N` yielded an RP-LC retention time of 693 s. In the case of `COc1ccc(Cc2nc(-c3cccc(-c4ccnn4C)c3)no2)cc1OC`, the RP-LC retention time is reported as 904 s. With `O=C1NC2(CCN(C(=O)c3ccc4c(c3)OCO4)CC2)N=C1c1cccc(Cl)c1` the RP-LC retention time was 835 s. In the case of `CCOC(=O)CCC(=O)Nc1ccc(-c2nnc(N(C)c3ccccc3)s2)cc1`, the RP-LC retention time is reported as 702 s. `O=C(CCCn1c(=O)c2cccn2c2ccc(F)cc21)NCCc1c[nH]c2ccccc12` gave an RP-LC retention time of 858 s. `Cn1c(C(=O)Nc2ccc(N3CCOCC3)cc2)cc2c1CCN(Cc1ccccc1)C2` showed an RP-LC retention time of 618 s. Compound `O=C1CC(c2noc(-c3cc(Cl)ccc3F)n2)CN1c1ccc(F)cc1` (stereo not given) has an RP-LC retention time of 1100 s. In the case of `Fc1ccc(-c2ccc(CNCc3ccccn3)o2)cc1`, the RP-LC retention time is reported as 655 s. `COCCN1C(=O)c2ccccc2C(C(=O)NCCc2ccccc2)C12CCCC2` (stereo not given) gave an RP-LC retention time of 827 s. Compound `COc1ccc2c(c1)C1(CCN(C(=O)Nc3ccccc3C)C1)C(=O)N2C` (stereo not given) has an RP-LC retention time of 750 s. For `Cc1ccc(N(C)C(=O)n2cnc3ccccc32)cc1`, the RP-LC retention time was 767 s. In the case of `N#Cc1c(NC(=O)c2cccnc2)sc2c1CCCCC2`, the RP-LC retention time is reported as 834 s. `O=C(CCNc1c(-c2cccc(F)c2)nc2cnccn12)N1CCCC1` showed an RP-LC retention time of 670 s.
